Data reported in patent US7579469B2, “Glucocorticoid mimetics, methods of making them, pharmaceutical compositions, and uses thereof” (Boehringer Ingelheim Pharmaceuticals, Inc., priority 2003, dated 2009).

Each compound was assayed on Osteocalcin Production from Osteoblast Cell Line MG-63 (assay: Inhibition of osteocalcin production from osteoblast cell line MG-63). Settings: MG-63 cells, Vitamin D 10 nM, 48 hours, osteocalcin ELISA.
Format: cell-based, human
Protocol: Representative compounds of the invention have been tested and have shown activity as modulators of the glucocorticoid receptor function in one or more of the above assays. […] 7. Inhibition of Osteocalcin Production from Osteoblast Cell Line MG-63
Human osteosarcoma MG-63 cells (ATCC, Cat. No. CRL-1427) are plated on 96 well plates at 20,000 cells per well the day before use in 200 μL media of 99% D-MEM/F-12 (Gibco-Invitrogen, Cat. No. 11039-021), supplemented with 1% penicillin and streptomycin (Gibco-Invitrogen, Cat. No. 15140-122), 10 μg/mL Vitamin C (Sigma, Cat. No. A4544), and 1% charcoal filtered Fetal Bovine Serum (HyClone, Cat. No. SH30068.02). The next day, wells are replaced with fresh media. Cells are treated with Vitamin D (Sigma, Cat. No. D1530) to a final concentration of 10 nM, and with the test compounds in concentrations of 10^−6 M to 10^−9 M, in a total volume of 200 μL per well. Samples are done in duplicates. […] Positive control wells receive Vitamin D only, without compounds, and represent maximum (100%) amount of osteocalcin production. Plates are incubated at 37° C. incubator for 48 hours and supernatants are harvested at the end of incubation. Amounts of osteocalcin in the supernatants are determined by the Glype osteocalcin ELISA kit (Zymed, Cat. No. 99-0054) according to manufacture's protocol. Inhibition of osteocalcin by test compounds is expressed in percentage relative to positive controls. IC50 values of the test compounds are derived by non-lineal curve fitting.

**Q.** `CC(C)(CC(O)(Cn1ccc(=O)c2ncccc21)C(F)(F)F)c1cc(F)ccc1O` (centres unmarked) was tested. Which “inhibit the vitamin D stimulated production of osteocalcin” value did it give?
**A.** Its value is “inhibit”.

Each compound was assayed against T1, human glucocorticoid receptor (GR) complex (Homo sapiens, UniProt P04150) (assay: Glucocorticoid receptor competitive binding assay (fluorescence polarization)). Settings: competition with TAMRA-labeled dexamethasone.
T1 construct: made in house; host or cells: insect expression system (baculovirus lysate)
T1 sequence (P04150 1-777): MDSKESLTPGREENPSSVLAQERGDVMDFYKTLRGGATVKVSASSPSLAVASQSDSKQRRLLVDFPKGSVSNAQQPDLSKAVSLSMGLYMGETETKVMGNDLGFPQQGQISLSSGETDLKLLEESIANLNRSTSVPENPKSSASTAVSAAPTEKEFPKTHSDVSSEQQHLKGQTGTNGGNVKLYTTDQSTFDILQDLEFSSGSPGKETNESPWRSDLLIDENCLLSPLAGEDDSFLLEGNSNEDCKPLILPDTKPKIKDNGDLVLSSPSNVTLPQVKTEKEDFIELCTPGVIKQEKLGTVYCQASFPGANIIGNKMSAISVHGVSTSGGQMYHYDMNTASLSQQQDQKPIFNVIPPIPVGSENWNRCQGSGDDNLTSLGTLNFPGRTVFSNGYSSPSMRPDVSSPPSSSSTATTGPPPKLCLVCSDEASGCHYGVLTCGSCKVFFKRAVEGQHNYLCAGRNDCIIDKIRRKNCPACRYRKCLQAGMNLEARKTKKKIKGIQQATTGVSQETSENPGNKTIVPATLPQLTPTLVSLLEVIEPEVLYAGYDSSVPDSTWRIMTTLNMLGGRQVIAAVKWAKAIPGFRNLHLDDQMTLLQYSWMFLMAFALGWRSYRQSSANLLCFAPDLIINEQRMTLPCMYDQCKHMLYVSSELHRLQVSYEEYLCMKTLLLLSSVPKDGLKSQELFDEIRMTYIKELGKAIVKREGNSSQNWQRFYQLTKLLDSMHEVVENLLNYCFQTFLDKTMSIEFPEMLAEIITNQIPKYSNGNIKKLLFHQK
How it was run: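 Fluorescence polarization competition against TAMRA-labelled dexamethasone (50 μL of 15 nM added) for human GR complex from baculovirus insect-cell lysate, diluted 1:170, in TES/KCl/molybdate buffer, pH 7.4.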

**Q.** `Cc1noc(C)c1-c1cccc(C(C)(C)CC(O)(Cn2ccc(=O)c3ccccc32)C(F)(F)F)c1` (centres unmarked) [1-{4-[3-(3,5-Dimethylisoxazol-4-yl)phenyl]-2-hydroxy-4-methyl-2-trifluoromethylpentyl}-1H-quinolin-4-one] was tested. Which “activity in the GR binding assay” value did it give?
**A.** The value was “potent activity”.

**Q.** How did the “activity in the GR binding assay” value turn out when `COc1ccc(F)cc1C(C)(C)CC(O)(CN1CCN(C(C)=O)c2ccccc21)C(F)(F)F` (centres unmarked) [1-{4-[4-(5-Fluoro-2-methoxyphenyl)-2-hydroxy-4-methyl-2-trifluoromethylpentyl]-3,4-dihydro-2H-quinoxalin-1-yl}ethanone] was run?
**A.** The value was “potent activity”.

**Q.** `Cc1noc(C)c1-c1ccc(O)c(C(C)(C)CC(O)(Cn2ccc(=O)c3ccccc32)C(F)(F)F)c1` (centres unmarked) [1-{4-[5-(3,5-Dimethylisoxazol-4-yl)-2-hydroxyphenyl]-2-hydroxy-4-methyl-2-trifluoromethylpentyl}-1H-quinolin-4-one] was tested. Which “activity in the GR binding assay” value did it give?
**A.** The value was “potent activity”.

**Q.** For `COc1ccc(-c2c(C)noc2C)cc1C(C)(C)CC(O)(Cn1ccc(=O)c2ccccc21)C(F)(F)F` (centres unmarked) [1-{4-[5-(3,5-Dimethylisoxazol-4-yl)-2-methoxyphenyl]-2-hydroxy-4-methyl-2-trifluoromethylpentyl}-1H-quinolin-4-one], which “activity in the GR binding assay” value is on record?
**A.** The value was “potent activity”.

**Q.** How did the “activity in the GR binding assay” value turn out when `CC(=O)COc1ccc(F)cc1C(C)(C)CC(O)(Cn1ccc(=O)c2ccccc21)C(F)(F)F` (centres unmarked) [1-{4-[5-Fluoro-2-(2-oxopropoxy)phenyl]-2-hydroxy-4-methyl-2-trifluoromethylpentyl}-1H-quinolin-4-one] was run?
**A.** Its value is “potent activity”.

**Q.** For `COc1ccc(F)cc1C(C)(C)CC(O)(CN1CCS(=O)(=O)c2ccccc21)C(F)(F)F` (centres unmarked) [2-(1,1-Dioxo-2,3-dihydro-1H-1λ^6-benzo[1,4]thiazin-4-ylmethyl)-1,1,1-trifluoro-4-(5-fluoro-2-methoxyphenyl)-4-methylpentan-2-ol], which “activity in the GR binding assay” value is on record?
**A.** The value was “potent activity”.

**Q.** `COc1ccc(F)cc1C(C)(C)CC(O)(CN1CCSc2ccccc21)C(F)(F)F` (centres unmarked) [2-(2,3-Dihydrobenzo[1,4]thiazin-4-ylmethyl)-1,1,1-trifluoro-4-(5-fluoro-2-methoxyphenyl)-4-methylpentan-2-ol] was tested. Which “activity in the GR binding assay” value did it give?
**A.** Its value is “potent activity”.

**Q.** For `COc1ccc(F)cc1C(C)(C)CC(O)(CN1CCc2ccccc21)C(F)(F)F` (centres unmarked) [2-(2,3-Dihydroindol-1-ylmethyl)-1,1,1-trifluoro-4-(5-fluoro-2-methoxyphenyl)-4-methylpentan-2-ol], which “activity in the GR binding assay” value is on record?
**A.** The value was “potent activity”.

**Q.** For `COc1ccc(F)cc1C(C)(C)CC(O)(CN1CCNc2ccccc21)C(F)(F)F` (centres unmarked) [2-(3,4-Dihydro-2H-quinoxalin-1-ylmethyl)-1,1,1-trifluoro-4-(5-fluoro-2-methoxyphenyl)-4-methylpentan-2-ol], which “activity in the GR binding assay” value is on record?
**A.** The value was “potent activity”.

**Q.** `COc1ccc(F)cc1C(C)(C)CC(O)(CN1CCN(c2ncc(C(F)(F)F)cc2Cl)CC1)C(F)(F)F` (centres unmarked) [2-[4-(3-Chloro-5-trifluoromethylpyridin-2-yl)piperazin-1-ylmethyl]-1,1,1-trifluoro-4-(5-fluoro-2-methoxyphenyl)-4-methylpentan-2-ol] was tested. Which “activity in the GR binding assay” value did it give?
**A.** The value was “potent activity”.

**Q.** With `COc1ccc(F)cc1C(C)(C)CC(O)(Cn1cc(C(F)(F)F)cc(Cl)c1=O)C(F)(F)F` (centres unmarked) [3-Chloro-1-[4-(5-fluoro-2-methoxyphenyl)-2-hydroxy-4-methyl-2-trifluoromethylpentyl]-5-trifluoromethyl-1H-pyridin-2-one] as the compound, how does the “activity in the GR binding assay” value read?
**A.** The value was “potent activity”.

**Q.** With `CC(C)(CC(O)(Cn1ccc(=O)c2ccccc21)C(F)(F)F)c1cccc(C=O)c1` (centres unmarked) [3-[4,4,4-Trifluoro-3-hydroxy-1,1-dimethyl-3-(4-oxo-4H-quinolin-1-ylmethyl)butyl]benzaldehyde] as the compound, how does the “activity in the GR binding assay” value read?
**A.** Its value is “potent activity”.

**Q.** For `COc1ccc(C=O)cc1C(C)(C)CC(O)(Cn1ccc(=O)c2ccccc21)C(F)(F)F` (centres unmarked) [4-Methoxy-3-[4,4,4-trifluoro-3-hydroxy-1,1-dimethyl-3-(4-oxo-4H-quinolin-1-ylmethyl)butyl]benzaldehyde], which “activity in the GR binding assay” value is on record?
**A.** Its value is “potent activity”.

**Q.** How did the “activity in the GR binding assay” value turn out when `COc1ccc(F)cc1C(C)(C)CC(O)(CN1CC(C)N(C=O)C(C)C1)C(F)(F)F` (centres unmarked) [4-[4-(5-Fluoro-2-methoxyphenyl)-2-hydroxy-4-methyl-2-trifluoromethylpentyl]-2,6-dimethylpiperazine-1-carbaldehyde] was run?
**A.** Its value is “potent activity”.

**Q.** With `CC(C)(CC(O)(Cn1ccc(=O)c2cc(Cl)ccc21)C(F)(F)F)c1cc(F)ccc1O` (centres unmarked) [6-Chloro-1-[4-(5-fluoro-2-hydroxyphenyl)-2-hydroxy-4-methyl-2-trifluoromethylpentyl]-1H-quinolin-4-one] as the compound, how does the “activity in the GR binding assay” value read?
**A.** Its value is “potent activity”.

**Q.** For `COc1ccc(F)cc1C(C)(C)CC(O)(Cn1ccc(=O)c2cc(Cl)ccc21)C(F)(F)F` (centres unmarked) [6-Chloro-1-[4-(5-fluoro-2-methoxyphenyl)-2-hydroxy-4-methyl-2-trifluoromethylpentyl]-1H-quinolin-4-one], which “activity in the GR binding assay” value is on record?
**A.** The value was “potent activity”.

**Q.** How did the “activity in the GR binding assay” value turn out when `CC(C)(CC(O)(Cn1ccc(=O)c2cc(F)ccc21)C(F)(F)F)c1cc(F)ccc1O` (centres unmarked) [6-Fluoro-1-[4-(5-fluoro-2-hydroxyphenyl)-2-hydroxy-4-methyl-2-trifluoromethylpentyl]-1H-quinolin-4-one] was run?
**A.** The value was “potent activity”.

**Q.** With `COc1ccc(F)cc1C(C)(C)CC(O)(Cn1ccc(=O)c2cc(F)ccc21)C(F)(F)F` (centres unmarked) [6-Fluoro-1-[4-(5-fluoro-2-methoxyphenyl)-2-hydroxy-4-methyl-2-trifluoromethylpentyl]-1H-quinolin-4-one] as the compound, how does the “activity in the GR binding assay” value read?
**A.** Its value is “potent activity”.

**Q.** `CC(C)(CC(O)(Cn1ccc(=O)c2ccc(Cl)cc21)C(F)(F)F)c1cc(F)ccc1O` (centres unmarked) [7-Chloro-1-[4-(5-fluoro-2-hydroxyphenyl)-2-hydroxy-4-methyl-2-trifluoromethylpentyl]-1H-quinolin-4-one] was tested. Which “activity in the GR binding assay” value did it give?
**A.** The value was “potent activity”.

**Q.** `COc1ccc(F)cc1C(C)(C)CC(O)(Cn1ccc(=O)c2ccc(Cl)cc21)C(F)(F)F` (centres unmarked) [7-Chloro-1-[4-(5-fluoro-2-methoxyphenyl)-2-hydroxy-4-methyl-2-trifluoromethylpentyl]-1H-quinolin-4-one] was tested. Which “activity in the GR binding assay” value did it give?
**A.** The value was “potent activity”.

**Q.** For `COc1ccc(F)cc1C(C)(C)CC(O)(Cn1ccc(=O)c2ccc(F)cc21)C(F)(F)F` (centres unmarked) [7-Fluoro-1-[4-(5-fluoro-2-methoxyphenyl)-2-hydroxy-4-methyl-2-trifluoromethylpentyl]-1H-quinolin-4-one], which “activity in the GR binding assay” value is on record?
**A.** The value was “potent activity”.

**Q.** Which “activity in the GR binding assay” value does the source give for `CC(C)(CC(O)(Cn1ccc(=O)c2cccc(F)c21)C(F)(F)F)c1cc(F)ccc1O` (centres unmarked) [8-Fluoro-1-[4-(5-fluoro-2-hydroxyphenyl)-2-hydroxy-4-methyl-2-trifluoromethylpentyl]-1H-quinolin-4-one] here?
**A.** The value was “potent activity”.

**Q.** `COc1ccc(F)cc1C(C)(C)CC(O)(Cn1ccc(=O)c2cccc(F)c21)C(F)(F)F` (centres unmarked) [8-Fluoro-1-[4-(5-fluoro-2-methoxyphenyl)-2-hydroxy-4-methyl-2-trifluoromethylpentyl]-1H-quinolin-4-one] was tested. Which “activity in the GR binding assay” value did it give?
**A.** The value was “potent activity”.

**Q.** With `CC(C)(CC(O)(CN1CCN(C(=O)c2ccco2)CC1)C(F)(F)F)c1cc(F)ccc1O` (centres unmarked) [{4-[4-(5-Fluoro-2-hydroxyphenyl)-2-hydroxy-4-methyl-2-trifluoromethylpentyl]piperazin-1-yl}furan-2-ylmethanone] as the compound, how does the “activity in the GR binding assay” value read?
**A.** The value was “potent activity”.

**Q.** Which “activity in the GR binding assay” value does the source give for `COc1ccc(F)cc1C(C)(C)CC(O)(CN1CCN(C(=O)c2ccco2)CC1)C(F)(F)F` (centres unmarked) [{4-[4-(5-Fluoro-2-methoxyphenyl)-2-hydroxy-4-methyl-2-trifluoromethylpentyl]piperazin-1-yl}furan-2-ylmethanone] here?
**A.** The value was “potent activity”.
